Measurements taken from the supplement of paper PMC10307832.

Key:
Test in all cases: relative viability (nuclei count vs DMSO), 5 days (fraction); higher = more cells survive
[1] = compound: CCN(CCO)CCCC(C)Nc1ccnc2cc(Cl)ccc12 [Hydroxychloroquine] + CCNC(=O)c1noc(-c2cc(C(C)C)c(O)cc2O)c1-c1ccc(CN2CCOCC2)cc1 [Luminespib] (partner 0.01 µM)
Outline: (§1)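 Medians of duplicate plates are given as relative viability. That measure is the nuclei count in treated wells divided by the count in vehicle wells. Counts were taken on 4× images of lung cancer cell lines in 1536-well plates, 5 days after pin-tool dosing the day after seeding with one drug alone or a fixed anchor-drug dose plus five library-drug doses (not always all listed) in √10 steps.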

[2] = compound: CCN(CCO)CCCC(C)Nc1ccnc2cc(Cl)ccc12 [Hydroxychloroquine] + C[C@]1(O)C[C@@H](c2nc(-c3ccc4ccc(-c5ccccc5)nc4c3)c3c(N)nccn32)C1 [Linsitinib] (partner 1 µM)
Outline: as §1

[3] = compound: CCN(CCO)CCCC(C)Nc1ccnc2cc(Cl)ccc12 [Hydroxychloroquine] + CS(=O)(=O)CCNCc1ccc(-c2ccc3ncnc(Nc4ccc(OCc5cccc(F)c5)c(Cl)c4)c3c2)o1 [Lapatinib] (partner 2 µM)
Outline: as §1

[4] = compound: CCN(CCO)CCCC(C)Nc1ccnc2cc(Cl)ccc12 [Hydroxychloroquine] + COc1cccc2cc(-c3nc([C@H]4CC[C@H](C(=O)O)CC4)n4ncnc(N)c34)[nH]c12 [OSI-027] (partner 0.5 µM)
Outline: as §1

Cell Line	relative viability ([1]; first compound 0.5 µM)	relative viability ([1]; first compound 1.581 µM)	relative viability ([1]; first compound 5 µM)	relative viability ([1]; first compound 15.81 µM)	relative viability ([1]; first compound 50 µM)	relative viability ([2]; first compound 0.5 µM)	relative viability ([2]; first compound 1.581 µM)	relative viability ([2]; first compound 5 µM)	relative viability ([2]; first compound 15.81 µM)	relative viability ([2]; first compound 50 µM)	relative viability ([3]; first compound 0.5 µM)	relative viability ([3]; first compound 1.581 µM)	relative viability ([3]; first compound 5 µM)	relative viability ([3]; first compound 15.81 µM)	relative viability ([3]; first compound 50 µM)	relative viability ([4]; first compound 0.5 µM)	relative viability ([4]; first compound 1.581 µM)	relative viability ([4]; first compound 5 µM)	relative viability ([4]; first compound 15.81 µM)	relative viability ([4]; first compound 50 µM)
NCI-H1563	0.521	0.579	0.488	0.567	0.496	1.03	1.04	1.18	1.06	1.17	0.839	0.756	0.951	0.798	0.866	0.736	0.625	0.79	0.794	0.716
HCC-44	1.12	0.93	1.19	1.19	1.23	0.634	0.682	0.723	0.748	0.774	0.989	1.07	1.08	1.06	1.04	0.504	0.418	0.43	0.511	0.547
PC-3 [JPC-3]	0.762	0.711	0.745	0.686	0.774	0.983	0.948	0.923	1.01	0.979	0.485	0.423	0.421	0.46	0.501	0.743	0.642	0.82	0.745	0.924
HOP-62	1	0.987	1.01	1.09	1	0.95	0.873	1.15	0.868	0.987	1.07	0.889	1.1	0.98	1.04	0.877	0.892	0.843	0.825	0.767
NCI-H358	0.286	0.293	0.282	0.283	0.388	0.795	0.704	0.712	0.69	0.743	0.487	0.432	0.412	0.486	0.476	0.666	0.616	0.783	0.83	0.991
SK-MES-1	0.725	0.818	0.778	0.84	0.661	1.1	1.09	1.12	1.16	1.03	0.515	0.418	0.487	0.472	0.449	0.623	0.381	0.712	0.67	0.589
NCI-H1666	1.02	0.989	0.981	1.01	0.923	0.764	0.773	0.771	0.813	0.724	0.572	0.483	0.681	0.61	0.538	0.816	0.81	0.834	0.82	0.808
NCI-H1355	0.877	0.754	0.712	0.632	0.729	0.872	0.879	0.896	0.809	0.892	1.03	0.88	1.02	0.887	1.06	0.509	0.301	0.371	0.332	0.44
